According to publication PMC10033419, “Blocking NS3–NS4B interaction inhibits dengue virus in non-human primates” (Nature, 2023):

System: DENV-1/45AZ5
Assay: NHP DENV-1 study, serum viral RNA RT-qPCR
Format: in vivo, rhesus macaques
Settings: for qRT-PCR Assay Average GE/mL: LOQ 100 GE/reaction
Procedure: WRAIR is fully accredited by AAALAC International.
Serum samples from macaques were checked for the presence of DENV-1 RNA. Viral RNA for RT–qPCR was extracted from 100–200 µl of serum using the QIAcube instrumentation and the QIAGEN Viral RNA extraction kits. The primers and fluorogenic probes used in the RT–qPCR assays have been previously described[63],[64]. DENV-1 RNA was detected in a 25 µl reaction containing 5 µl of extracted RNA sample, 10 pmol of dengue-specific primers and 5 pmol dengue probe in the reaction mixture from Superscript Ill Platinum One-Step Quantitative RT-PCR Kit (Invitrogen, Thermo Fisher Scientific), consisting of 0.5 µl Superscript III RT/Platinum mix, 12.5 µl 2× reaction mix and 0.05 µl ROX reference dye. The one-step RT–qPCR comprises a 30 min RT step at 50 °C and 2 min of Taq polymerase activation at 94 °C, followed by 40 cycles of PCR at 94 °C for 5 s and 53 °C for 35 s performed in an ABI 7500DX Fast Real Time PCR system. Each assay included positive, negative and non-template controls. The RNA copy number was calculated from a standard curve of tenfold serial dilutions made from RNA in vitro transcripts consisting of DENV-1 with known copy numbers. The LLOQ was 100 genomic copies per reaction.
This sample size was sufficient to detect a significant difference in the number of infected animals in each of the groups as low as 83%. […] Sample processing and conducting of assays was performed by laboratory technicians not involved in the treatment/manipulation of the animals.

COc1cc(N[C@H](C(=O)c2c[nH]c3ccc(OC(F)(F)F)cc23)c2ccc(Cl)cc2OC)cc(S(C)(=O)=O)c1 [JNJ-1802]
DENV RNA (6 mg per kg per day q.d.): remained undetectable during the complete study period
qRT-PCR Assay Result (animal R7, Day 0): Negative
qRT-PCR Assay Average GE/mL (animal R7, Day 0): 0.00E+00 GE/mL
qRT-PCR Assay Result (animal R7, Day 1): Negative
qRT-PCR Assay Average GE/mL (animal R7, Day 1): 0.00E+00 GE/mL
qRT-PCR Assay Result (animal R7, Day 2): Negative
qRT-PCR Assay Average GE/mL (animal R7, Day 2): 0.00E+00 GE/mL
qRT-PCR Assay Result (animal R7, Day 3): Negative
qRT-PCR Assay Average GE/mL (animal R7, Day 3): 0.00E+00 GE/mL
qRT-PCR Assay Result (animal R7, Day 4): Negative
qRT-PCR Assay Average GE/mL (animal R7, Day 4): 0.00E+00 GE/mL
qRT-PCR Assay Result (animal R7, Day 5): Negative
qRT-PCR Assay Average GE/mL (animal R7, Day 5): 0.00E+00 GE/mL
qRT-PCR Assay Result (animal R7, Day 6): Negative
qRT-PCR Assay Average GE/mL (animal R7, Day 6): 0.00E+00 GE/mL
qRT-PCR Assay Result (animal R7, Day 7): Negative
qRT-PCR Assay Average GE/mL (animal R7, Day 7): 0.00E+00 GE/mL
qRT-PCR Assay Result (animal R7, Day 8): Negative
qRT-PCR Assay Average GE/mL (animal R7, Day 8): 0.00E+00 GE/mL
qRT-PCR Assay Result (animal R7, Day 9): Negative
qRT-PCR Assay Average GE/mL (animal R7, Day 9): 0.00E+00 GE/mL
qRT-PCR Assay Result (animal R7, Day 10): Negative
qRT-PCR Assay Average GE/mL (animal R7, Day 10): 0.00E+00 GE/mL
qRT-PCR Assay Result (animal R7, Day 11): Negative
qRT-PCR Assay Average GE/mL (animal R7, Day 11): 0.00E+00 GE/mL
qRT-PCR Assay Result (animal R7, Day 14): Negative
qRT-PCR Assay Average GE/mL (animal R7, Day 14): 0.00E+00 GE/mL
qRT-PCR Assay Result (animal R7, Day 29): Negative
qRT-PCR Assay Average GE/mL (animal R7, Day 29): 0.00E+00 GE/mL
qRT-PCR Assay Result (animal R8, Day 0): Negative
qRT-PCR Assay Average GE/mL (animal R8, Day 0): 0.00E+00 GE/mL
qRT-PCR Assay Result (animal R8, Day 1): Negative
qRT-PCR Assay Average GE/mL (animal R8, Day 1): 0.00E+00 GE/mL
qRT-PCR Assay Result (animal R8, Day 2): Negative
qRT-PCR Assay Average GE/mL (animal R8, Day 2): 0.00E+00 GE/mL
qRT-PCR Assay Result (animal R8, Day 3): Negative
qRT-PCR Assay Average GE/mL (animal R8, Day 3): 0.00E+00 GE/mL
qRT-PCR Assay Result (animal R8, Day 4): Negative
qRT-PCR Assay Average GE/mL (animal R8, Day 4): 0.00E+00 GE/mL
qRT-PCR Assay Result (animal R8, Day 5): Negative
qRT-PCR Assay Average GE/mL (animal R8, Day 5): 0.00E+00 GE/mL
qRT-PCR Assay Result (animal R8, Day 6): Negative
qRT-PCR Assay Average GE/mL (animal R8, Day 6): 0.00E+00 GE/mL
qRT-PCR Assay Result (animal R8, Day 7): Negative
qRT-PCR Assay Average GE/mL (animal R8, Day 7): 0.00E+00 GE/mL
qRT-PCR Assay Result (animal R8, Day 8): Negative
qRT-PCR Assay Average GE/mL (animal R8, Day 8): 0.00E+00 GE/mL
qRT-PCR Assay Result (animal R8, Day 9): Negative
qRT-PCR Assay Average GE/mL (animal R8, Day 9): 0.00E+00 GE/mL
qRT-PCR Assay Result (animal R8, Day 10): Negative
qRT-PCR Assay Average GE/mL (animal R8, Day 10): 0.00E+00 GE/mL
qRT-PCR Assay Result (animal R8, Day 11): Negative
qRT-PCR Assay Average GE/mL (animal R8, Day 11): 0.00E+00 GE/mL
qRT-PCR Assay Result (animal R8, Day 14): Negative
qRT-PCR Assay Average GE/mL (animal R8, Day 14): 0.00E+00 GE/mL
qRT-PCR Assay Result (animal R8, Day 29): Negative
qRT-PCR Assay Average GE/mL (animal R8, Day 29): 0.00E+00 GE/mL
qRT-PCR Assay Result (animal R9, Day 0): Negative
qRT-PCR Assay Average GE/mL (animal R9, Day 0): 0.00E+00 GE/mL
qRT-PCR Assay Result (animal R9, Day 1): Negative
qRT-PCR Assay Average GE/mL (animal R9, Day 1): 0.00E+00 GE/mL
qRT-PCR Assay Result (animal R9, Day 2): Negative
qRT-PCR Assay Average GE/mL (animal R9, Day 2): 0.00E+00 GE/mL
qRT-PCR Assay Result (animal R9, Day 3): Negative
qRT-PCR Assay Average GE/mL (animal R9, Day 3): 0.00E+00 GE/mL
qRT-PCR Assay Result (animal R9, Day 4): Negative
qRT-PCR Assay Average GE/mL (animal R9, Day 4): 0.00E+00 GE/mL
qRT-PCR Assay Result (animal R9, Day 5): Negative
qRT-PCR Assay Average GE/mL (animal R9, Day 5): 0.00E+00 GE/mL
qRT-PCR Assay Result (animal R9, Day 6): Negative
qRT-PCR Assay Average GE/mL (animal R9, Day 6): 0.00E+00 GE/mL
qRT-PCR Assay Result (animal R9, Day 7): Negative
qRT-PCR Assay Average GE/mL (animal R9, Day 7): 0.00E+00 GE/mL
qRT-PCR Assay Result (animal R9, Day 8): Negative
qRT-PCR Assay Average GE/mL (animal R9, Day 8): 0.00E+00 GE/mL
qRT-PCR Assay Result (animal R9, Day 9): Negative
qRT-PCR Assay Average GE/mL (animal R9, Day 9): 0.00E+00 GE/mL
qRT-PCR Assay Result (animal R9, Day 10): Negative
qRT-PCR Assay Average GE/mL (animal R9, Day 10): 0.00E+00 GE/mL
qRT-PCR Assay Result (animal R9, Day 11): Negative
qRT-PCR Assay Average GE/mL (animal R9, Day 11): 0.00E+00 GE/mL
qRT-PCR Assay Result (animal R9, Day 14): Negative
qRT-PCR Assay Average GE/mL (animal R9, Day 14): 0.00E+00 GE/mL
qRT-PCR Assay Result (animal R9, Day 29): Negative
